Reference: patent publication US20250114436A1, “DYNAMIC-COVALENT HYDROGELS WITH GLUCOSE-SPECIFIC AND GLUCOSE-RESPONSIVE DIBORONATE CROSSLINKING” (UNIVERSITY OF NOTRE DAME DU LAC, priority 2022, published 2025)

What was measured:
[1] = Acid-base titration for pKa determination; type: physicochemical; conditions: small molecule
Procedure: A 0.01 M stock solution of the PBA of interest was prepared by dissolving 0.2 mmol of each PBA in 20 mL DI water. The solution was then titrated with 0.005 M NaOH solution under constant stirring with pH monitoring.
Previously reported diboronate glucose sensors include architectures of two phenylboronic acids attached to an aryl core via charged ammonium linkers. In a variation on this approach, the DiPBA motif explored here has introduced adjacent charge via pyridine-based phenylboronic acid structures (FIG. 1B). Besides conserving adjacent positive charge, the topology of this novel design was also intended to afford a more rigid pocket for simultaneous glucose binding by both boronates (FIG. 2B). Details for the synthesis and molecular characterization of this novel DiPBA group, along with all other synthetic small molecules and macromers, are reported in the Online Supporting Information. As a control for this glucose-binding motif, a single pyridine-PBA (PyPBA) was also synthesized. DiPBA and PyPBA motifs were compared in this work to a fluorine-substituted PBA motif (FPBA) that has been routinely reported in glucose-responsive materials and therapeutic constructs.

[2] = Isothermal titration calorimetry (ITC), lactate binding
Procedure: (§1) The binding affinities (Keq) between different small molecule PBAs and model analytes (FIG. 2) were measured through isothermal titration calorimetry (ITC). All titration experiments were performed at 298 K on a PEAQ-ITC calorimeter (MicroCal, Inc.) in degassed pH 7.4 PBS buffer, using a 38 μL syringe and 200 μL cells and consisting of 19 injections. The measurements were performed by titrating glucose, fructose, sodium lactate, or Diolsm from the syringe into a solution of small molecule variants of DiPBAsm, PyPBAsm, or FPBAsm loaded in the cell. In all titration experiments, the cell concentration was 1 mM, while the analyte concentrations in the syringe were varied according to experimental optimization. All raw data were corrected by subtraction of a dilution measurement of the titrated analytes into buffer and were then analyzed and graphed using the integrated public-domain software packages of NIPIC, SEDPHAT, and GUSSI according to a published protocol. See Brautigam et al., Nat. Protoc. 11(5): 882-894 (2016).
(§2) To first quantify the affinities of binding for these different PBA motifs to glucose, related analytes, and model diols, a set of small molecules (FIG. 2) were synthesized for isothermal titration calorimetry (ITC) studies. […] By comparison, the commonly used FPBA motif had Keq for glucose binding of only 8.6 M^−1. […] Accordingly, concerns over low-affinity glucose-binding and poor glucose selectivity of traditional PBAs are supported by these ITC data, with both issues seemingly overcome using DiPBA chemistry. […] Finally, to explore the likely outcomes of using each of these PBA motifs in the context of dynamic-covalent networks a model diol (GdL-Diol) was prepared from reaction of glucono-δ-lactone (GdL) with benzylamine. The Keq of binding for each PBA motif to this model diol were nearly identical (˜5×10^3 M^−1); this finding confirms similar 1:1 binding stoichiometry between all three PBA chemistries studied here and the GdL-derived diol chemistry commonly used in preparing dynamic-covalent PBA-diol networks.

[3] = Isothermal titration calorimetry (ITC), glucose binding; conditions: for Keq for binding to glucose: 298 K, pH 7.4 PBS
Procedure: as §1, §2

[4] = Isothermal titration calorimetry (ITC), fructose binding
Procedure: as §1, §2

[5] = test system: streptozotocin (STZ)-induced diabetic mice; experiment: Blood glucose control in vivo with glucose tolerance tests; parameters: species or system male C57BL6/J mice; conditions: free insulin 4 IU/kg
Procedure: To evaluate the performance hydrogels for blood glucose control, male C57BL6/J mice (8 weeks old, ˜25 g/mouse; Jackson Laboratory) were induced to be insulin deficient using streptozotocin (STZ). Mice were fasted for 4 h, following which a single intraperitoneal (i.p.) injection of STZ at a dose of 150 mg/kg was administered. Following an additional 30 min fast, food was returned. Seven days following STZ treatment, insulin-deficient diabetes was verified using hand-held blood glucose meters (CVS brand) with unfasted blood glucose (BG) levels ensured to be above 600 mg/dL for study inclusion. Mice were then fasted for 12 h, and those with BG >550 mg/dL were randomly divided into 4 groups (n=5-6/group). […] BG level were continuously monitored for 3 h after treatment. […] BG were subsequently monitored for 3 h. […] Areas under the curve (AUC) were calculated using the trapezoidal rule and statistical analyses were performed to compare DiPBA and FPBA treatment groups using GraphPad Prism v9.0, with significance obtained using a Student's t-test. […] Glucose levels were monitored over time using handheld glucometers (FIG. 11B). […]

Question: Which pKa1 [1] does the source give for `COC(=O)c1cc(C[n+]2cccc(B(O)O)c2)ccc1C[n+]1cccc(B(O)O)c1` [DiPBA] here?
Answer: 4.53

Question: And the pKa2 [1]?
Answer: 7.45

Question: What about the “lactate binding compared to FPBA / traditional PBA” value [2] of the same molecule?
Answer: reduced

Question: And the “Keq for glucose relative to that for lactate (times higher)” value ([2]; pH 7.4 PBS)?
Answer: 29 times

Question: And the “glucose affinity relative to a traditional PBA motif (times higher)” value [3]?
Answer: 150 times

Question: And the “Keq for binding to glucose” value [3]?
Answer: 1295 M⁻¹

Question: And the “fructose binding compared to FPBA / traditional PBA” value [4]?
Answer: reduced

Question: And the “Keq for glucose relative to that for fructose (times higher)” value ([4]; pH 7.4 PBS)?
Answer: 1.7 times

Question: Which results are given for `COC(=O)c1cccc(C[n+]2cccc(B(O)O)c2)c1` [PyPBA]?
Answer: pKa ([1]; DI water titrated with 0.005 M NaOH): 4.41; lactate binding compared to FPBA / traditional PBA [2]: reduced; Keq for binding to glucose [3]: 164.7 M⁻¹; fructose binding compared to FPBA / traditional PBA [4]: reduced

Question: With “insulin: Recombinant Human Insulin, free insulin control, 4 IU/kg s.c.” as the molecule, how does the “blood glucose response to first i.p. glucose tolerance test” value ([5]; GTT 1.25 g/kg glucose at 180 min) read?
Answer: dramatically increased blood glucose without any subsequent correction

Question: What about the “time to blood glucose nadir” value ([5]; s.c.) of the same molecule?
Answer: ~1 h
